Laboratory results reported in ChEMBL document CHEMBL1145410 (Bioorg Med Chem Lett, 2007).

What was measured:
Dipeptidyl peptidase 9 = Dipeptidyl peptidase 9 (Homo sapiens, UniProt Q86TI2); test: Inhibition of DPP9
Dipeptidyl peptidase 2 = Dipeptidyl peptidase 2 (Homo sapiens, UniProt Q9UHL4); test: Inhibition of QPP
Dipeptidyl peptidase 4 = Dipeptidyl peptidase 4 (Homo sapiens, UniProt P27487); test: Inhibition of DPP4
Dipeptidyl peptidase 8 = Dipeptidyl peptidase 8 (Homo sapiens, UniProt Q6V1X1); test: Inhibition of DPP8
Sequence of Dipeptidyl peptidase 8 (Q6V1X1 whole entry): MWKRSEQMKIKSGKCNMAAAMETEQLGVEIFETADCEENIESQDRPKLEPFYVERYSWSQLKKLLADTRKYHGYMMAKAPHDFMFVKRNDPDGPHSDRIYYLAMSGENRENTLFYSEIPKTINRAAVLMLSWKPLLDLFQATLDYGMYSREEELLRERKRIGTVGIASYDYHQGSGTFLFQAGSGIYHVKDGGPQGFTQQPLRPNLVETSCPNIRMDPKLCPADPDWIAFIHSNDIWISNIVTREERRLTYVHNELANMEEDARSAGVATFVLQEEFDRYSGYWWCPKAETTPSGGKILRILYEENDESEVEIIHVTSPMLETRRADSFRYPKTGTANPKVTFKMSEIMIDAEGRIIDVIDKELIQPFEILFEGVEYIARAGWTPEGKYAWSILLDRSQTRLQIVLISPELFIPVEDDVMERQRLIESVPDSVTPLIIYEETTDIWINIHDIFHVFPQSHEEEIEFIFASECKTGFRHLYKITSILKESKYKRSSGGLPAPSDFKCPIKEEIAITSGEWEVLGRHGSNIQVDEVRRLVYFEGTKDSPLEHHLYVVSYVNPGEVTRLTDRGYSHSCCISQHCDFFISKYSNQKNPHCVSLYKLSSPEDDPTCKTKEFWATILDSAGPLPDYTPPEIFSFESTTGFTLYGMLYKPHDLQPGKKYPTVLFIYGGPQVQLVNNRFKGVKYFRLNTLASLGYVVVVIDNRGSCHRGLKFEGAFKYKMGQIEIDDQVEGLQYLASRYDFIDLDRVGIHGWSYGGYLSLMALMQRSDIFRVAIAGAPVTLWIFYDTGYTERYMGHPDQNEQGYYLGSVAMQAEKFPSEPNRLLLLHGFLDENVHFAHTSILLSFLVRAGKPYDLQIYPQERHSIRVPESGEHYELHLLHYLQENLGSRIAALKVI

[1] = Inhibition of rabbit calcium channel L type; design: species or system Oryctolagus cuniculus
[2] = Half life in rat at 1 mg/kg iv or 2 mg/kg po; assay type: ADME, organism-based; conditions: in vivo
Cytochrome P450 2D6 = Cytochrome P450 2D6 (Homo sapiens, UniProt P10635); test: Inhibition of Cyp2D6; assay type: ADME
Sequence of Cytochrome P450 2D6 (P10635 whole entry): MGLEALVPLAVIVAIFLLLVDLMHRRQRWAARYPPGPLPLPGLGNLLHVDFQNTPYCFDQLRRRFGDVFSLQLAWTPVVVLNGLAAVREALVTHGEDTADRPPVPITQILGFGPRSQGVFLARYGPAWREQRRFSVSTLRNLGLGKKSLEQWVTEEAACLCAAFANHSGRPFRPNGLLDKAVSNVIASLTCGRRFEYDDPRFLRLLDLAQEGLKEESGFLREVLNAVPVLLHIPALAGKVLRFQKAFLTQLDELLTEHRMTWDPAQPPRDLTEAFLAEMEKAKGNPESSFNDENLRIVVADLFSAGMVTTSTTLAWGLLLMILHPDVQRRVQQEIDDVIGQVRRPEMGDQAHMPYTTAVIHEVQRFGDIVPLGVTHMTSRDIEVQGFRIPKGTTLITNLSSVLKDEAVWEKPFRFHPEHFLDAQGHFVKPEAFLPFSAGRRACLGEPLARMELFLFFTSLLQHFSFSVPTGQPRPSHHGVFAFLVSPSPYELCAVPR

[3] = Plasma clearance in rat at 1 mg/kg iv or 2 mg/kg po; assay type: ADME, organism-based
[4] = Bioavailability iin rat at 1 mg/kg iv or 2 mg/kg po; assay type: ADME, organism-based; conditions: in vivo
[5] = biological target: Voltage-gated inwardly rectifying potassium channel KCNH2 (Homo sapiens, UniProt Q12809); test: Inhibition of human ERG potassium channel
Sequence of Voltage-gated inwardly rectifying potassium channel KCNH2 (Q12809 whole entry): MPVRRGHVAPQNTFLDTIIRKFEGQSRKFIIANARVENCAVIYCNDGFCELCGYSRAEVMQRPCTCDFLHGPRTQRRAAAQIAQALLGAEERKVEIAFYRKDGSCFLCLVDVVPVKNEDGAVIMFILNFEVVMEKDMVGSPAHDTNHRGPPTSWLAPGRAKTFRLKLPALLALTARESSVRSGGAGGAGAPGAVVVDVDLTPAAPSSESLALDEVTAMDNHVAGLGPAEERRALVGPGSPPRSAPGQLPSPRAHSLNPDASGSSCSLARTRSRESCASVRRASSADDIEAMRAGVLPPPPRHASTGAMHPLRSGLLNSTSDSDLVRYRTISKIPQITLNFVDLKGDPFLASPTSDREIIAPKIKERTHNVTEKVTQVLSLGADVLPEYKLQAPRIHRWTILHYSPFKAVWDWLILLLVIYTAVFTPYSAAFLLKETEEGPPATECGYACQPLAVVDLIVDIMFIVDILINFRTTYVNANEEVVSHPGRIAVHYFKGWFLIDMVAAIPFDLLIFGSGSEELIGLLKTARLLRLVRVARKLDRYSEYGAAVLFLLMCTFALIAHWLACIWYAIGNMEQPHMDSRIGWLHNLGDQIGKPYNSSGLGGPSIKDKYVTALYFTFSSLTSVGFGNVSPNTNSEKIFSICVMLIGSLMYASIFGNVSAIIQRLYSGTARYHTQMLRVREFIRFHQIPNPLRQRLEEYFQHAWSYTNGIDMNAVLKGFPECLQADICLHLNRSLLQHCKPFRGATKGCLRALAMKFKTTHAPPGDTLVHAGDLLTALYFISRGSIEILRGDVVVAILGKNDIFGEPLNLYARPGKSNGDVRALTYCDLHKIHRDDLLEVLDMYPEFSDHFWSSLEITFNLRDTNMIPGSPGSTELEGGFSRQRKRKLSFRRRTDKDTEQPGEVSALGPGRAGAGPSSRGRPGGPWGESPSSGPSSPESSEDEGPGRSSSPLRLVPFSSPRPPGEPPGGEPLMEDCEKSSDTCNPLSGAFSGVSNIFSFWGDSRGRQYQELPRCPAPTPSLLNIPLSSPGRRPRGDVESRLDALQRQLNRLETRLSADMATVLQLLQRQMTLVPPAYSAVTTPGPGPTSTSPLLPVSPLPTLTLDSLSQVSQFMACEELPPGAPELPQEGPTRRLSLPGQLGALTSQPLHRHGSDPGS

Sequence of Dipeptidyl peptidase 9 (Q86TI2 whole entry): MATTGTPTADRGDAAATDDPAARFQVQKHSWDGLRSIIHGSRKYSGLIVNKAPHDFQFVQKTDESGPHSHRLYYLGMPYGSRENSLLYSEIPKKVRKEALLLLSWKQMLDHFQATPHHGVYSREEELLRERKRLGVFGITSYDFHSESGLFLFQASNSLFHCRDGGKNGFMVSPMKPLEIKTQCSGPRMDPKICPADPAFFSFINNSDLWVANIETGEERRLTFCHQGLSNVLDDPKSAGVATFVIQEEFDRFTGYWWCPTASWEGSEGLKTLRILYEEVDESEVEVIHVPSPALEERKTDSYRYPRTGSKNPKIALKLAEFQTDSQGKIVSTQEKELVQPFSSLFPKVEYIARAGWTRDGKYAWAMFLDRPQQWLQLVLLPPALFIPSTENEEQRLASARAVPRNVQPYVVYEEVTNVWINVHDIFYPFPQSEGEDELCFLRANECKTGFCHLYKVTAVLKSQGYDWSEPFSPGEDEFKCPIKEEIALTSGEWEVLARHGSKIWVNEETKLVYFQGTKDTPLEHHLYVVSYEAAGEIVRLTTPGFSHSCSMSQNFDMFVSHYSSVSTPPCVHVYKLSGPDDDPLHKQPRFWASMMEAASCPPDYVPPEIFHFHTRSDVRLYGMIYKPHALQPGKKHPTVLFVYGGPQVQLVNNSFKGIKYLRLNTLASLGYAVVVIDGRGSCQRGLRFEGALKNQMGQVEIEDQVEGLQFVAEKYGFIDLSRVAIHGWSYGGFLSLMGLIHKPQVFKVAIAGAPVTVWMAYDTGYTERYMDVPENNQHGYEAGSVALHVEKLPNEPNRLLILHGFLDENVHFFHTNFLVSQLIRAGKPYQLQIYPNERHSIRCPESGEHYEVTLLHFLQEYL
Sequence of Dipeptidyl peptidase 4 (P27487 whole entry): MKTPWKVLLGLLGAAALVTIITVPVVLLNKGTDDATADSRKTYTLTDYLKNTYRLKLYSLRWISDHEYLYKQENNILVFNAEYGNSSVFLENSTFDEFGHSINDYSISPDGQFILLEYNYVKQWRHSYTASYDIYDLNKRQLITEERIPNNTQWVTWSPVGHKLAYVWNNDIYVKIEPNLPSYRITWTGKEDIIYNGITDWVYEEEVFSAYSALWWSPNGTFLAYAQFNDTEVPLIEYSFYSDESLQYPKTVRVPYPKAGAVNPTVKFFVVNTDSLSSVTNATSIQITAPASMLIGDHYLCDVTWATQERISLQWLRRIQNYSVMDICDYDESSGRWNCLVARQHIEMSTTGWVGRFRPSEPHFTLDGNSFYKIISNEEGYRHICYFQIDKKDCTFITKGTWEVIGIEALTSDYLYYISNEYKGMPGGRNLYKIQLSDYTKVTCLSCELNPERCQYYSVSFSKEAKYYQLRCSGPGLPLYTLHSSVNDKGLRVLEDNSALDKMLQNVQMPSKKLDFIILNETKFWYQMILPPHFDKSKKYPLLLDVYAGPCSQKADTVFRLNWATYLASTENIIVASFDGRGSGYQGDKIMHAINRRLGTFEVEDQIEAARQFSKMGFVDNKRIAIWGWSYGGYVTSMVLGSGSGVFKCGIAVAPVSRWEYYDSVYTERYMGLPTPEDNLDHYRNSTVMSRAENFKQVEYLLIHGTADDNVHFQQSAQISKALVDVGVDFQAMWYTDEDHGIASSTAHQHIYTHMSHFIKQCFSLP

SMILES	IC50 (Dipeptidyl peptidase 9) [µM]	IC50 (Dipeptidyl peptidase 2) [µM]	IC50 (Dipeptidyl peptidase 4) [µM]	IC50 (Dipeptidyl peptidase 8) [µM]	IC50 [1] [µM]	half-life [2] [h]	IC50 (Cytochrome P450 2D6) [µM]	clearance [3] [mL/min/kg]	bioavailability [4] [%]	IC50 [5] [µM]
N[C@H]1CN(c2ccc3nnc(C(F)(F)F)n3n2)CC[C@@H]1c1cc(F)c(F)cc1F	90	96	0.009	> 100						
N[C@H]1CN(c2ccc3nnc(-c4ccc(F)cc4)n3n2)CC[C@@H]1c1cc(F)c(F)cc1F		15								
N[C@H]1CN(c2ccccn2)CC[C@@H]1c1cc(F)c(F)cc1F	38	50	0.058	34						
N[C@H]1CN(c2cccnc2)CC[C@@H]1c1cc(F)c(F)cc1F	36	82	0.144	54						
N[C@H]1CN(c2cccc(C(F)(F)F)n2)CC[C@@H]1c1cc(F)c(F)cc1F	21	5.3	0.111	> 100						
N[C@H]1CN(c2ncccc2C(F)(F)F)CC[C@@H]1c1cc(F)c(F)cc1F	> 100			> 100						
N#Cc1ccc(N2CC[C@H](c3cc(F)c(F)cc3F)[C@@H](N)C2)nc1	9.6	40	0.014	5.8						
N[C@H]1CN(c2ccncn2)CC[C@@H]1c1cc(F)c(F)cc1F	67	> 100	0.037	60	26.9					
N[C@H]1CN(c2cnccn2)CC[C@@H]1c1cc(F)c(F)cc1F	40	33	0.082	76						
N[C@H]1CN(c2cccnn2)CC[C@@H]1c1cc(F)c(F)cc1F	44	> 100	0.063	40						
N[C@H]1CN(c2nccc3ccccc23)CC[C@@H]1c1cc(F)c(F)cc1F	> 100	32	3.7	> 100						
N[C@H]1CN(c2ccc3nccnc3n2)CC[C@@H]1c1cc(F)c(F)cc1F	50	35	0.007	25						
N[C@H]1CN(c2cnc3cccnc3n2)CC[C@@H]1c1cc(F)c(F)cc1F	> 100	58	0.13	66						
N[C@H]1CN(c2cnc3cncnc3n2)CC[C@@H]1c1cc(F)c(F)cc1F		87								
N[C@H]1CN(c2cnc3nccnc3n2)CC[C@@H]1c1cc(F)c(F)cc1F.O=C(O)C(F)(F)F	> 100	93	0.013	54	4.1	1.4	11.6	62	45	
N[C@H]1CN(c2ccc3nc(C(F)(F)F)nn3n2)CC[C@@H]1c1cc(F)c(F)cc1F	> 100	> 100	0.005	> 100	1		0.1			8.1
N[C@H]1CN(c2ccn3cnnc3n2)CC[C@@H]1c1cc(F)c(F)cc1F.O=C(O)C(F)(F)F	43	> 100	0.026	30		1.5	20.6	54	19	

SMILES	IC50 (Dipeptidyl peptidase 9) [µM]	IC50 (Dipeptidyl peptidase 2) [µM]	IC50 (Dipeptidyl peptidase 4) [µM]	IC50 (Dipeptidyl peptidase 8) [µM]	IC50 [1] [µM]	half-life [2] [h]	IC50 (Cytochrome P450 2D6) [µM]	clearance [3] [mL/min/kg]	bioavailability [4] [%]	IC50 [5] [µM]
N[C@H]1CN(c2ccc3ncnc(C4CC4)c3n2)CC[C@@H]1c1cc(F)c(F)cc1F	32	9.9	0.008	28						
Cc1nc2ccc(N3CC[C@H](c4cc(F)c(F)cc4F)[C@@H](N)C3)nc2c(=O)[nH]1	> 100	46	0.007	80						
N[C@H]1CN(c2ccc3nc(=O)ccn3n2)CC[C@@H]1c1cc(F)c(F)cc1F.O=C(O)C(F)(F)F	19	> 100	0.0012	> 100	84.6	1.6	55.4	35	12	100
Cc1cc(=O)n2nc(N3CC[C@H](c4cc(F)c(F)cc4F)[C@@H](N)C3)ccc2n1.O=C(O)C(F)(F)F	> 100	> 100	0.008	> 100	18.5	1.4	16.2	18	74	33.2
N[C@H]1CN(c2ccc3nncn3n2)CC[C@@H]1c1cc(F)c(F)cc1F	> 100	> 100	0.031	> 100						
Cc1nnc2ccc(N3CC[C@H](c4cc(F)c(F)cc4F)[C@@H](N)C3)nn12.O=C(O)C(F)(F)F	> 100	74	0.006	> 100	2	4.7		12	100	
N[C@H]1CN(c2ccc(C(F)(F)F)cn2)CC[C@@H]1c1cc(F)c(F)cc1F		28								
N[C@H]1CN(c2ccc3ccccc3n2)CC[C@@H]1c1cc(F)c(F)cc1F	13	21	0.054	10						
N[C@H]1CN(c2cnc3ccccc3n2)CC[C@@H]1c1cc(F)c(F)cc1F		27								
N[C@H]1CN(c2ccc3nc(C(F)(F)F)cn3n2)CC[C@@H]1c1cc(F)c(F)cc1F	75	64	0.022	49						
Cn1c(C2CC2)nc2ccc(N3CC[C@H](c4cc(F)c(F)cc4F)[C@@H](N)C3)nc21	57	41	0.002	> 100						
CCc1nnc2ccc(N3CC[C@H](c4cc(F)c(F)cc4F)[C@@H](N)C3)nn12		90								
N[C@H]1CN(c2ccccc2)CC[C@@H]1c1cc(F)c(F)cc1F	39	5.5	0.21	33						
N[C@H]1CN(c2ccncc2)CC[C@@H]1c1cc(F)c(F)cc1F	35	46	0.125	43						
Cn1nc2ccc(N3CC[C@H](c4cc(F)c(F)cc4F)[C@@H](N)C3)nn2c1=O		57								
N[C@H]1CN(c2ncccn2)CC[C@@H]1c1cc(F)c(F)cc1F	58	54	0.09	33						
